# Source: publication PMC9775191, “A Subset Screen of the Compounds Australia Scaffold Library Identifies 7-Acylaminodibenzoxazepinones as Potent and Selective Hits for Anti-Giardia Drug Discovery” (Biomedicines, 2022)
# Test system: G. duodenalis BRIS/91/HEPU/1279
# Assay: Primary Giardia screen at 10 µM (live-cell imaging, automated counting)
# Format: cell-based, Giardia duodenalis
# Conditions: for % Inhibition n=1 48h / % Inhibition n=1 24h: first singlicate assay; for % Inhibition n=2 24h / % Inhibition n=2 48h: re-assessment
# Outline: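 Compounds were tested once each at 10 μM final (0.2% DMSO) in culture medium under 3% O2, 5% CO2 in N2. Growth was read at 24 and 48 h by live-cell imaging with automated counting, and inhibition expressed as percent growth versus 0.2% DMSO vehicle after media-only background subtraction.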
Structure (SMILES),% Inhibition n=1 48h [%],also measured
COc1ccc(CNC(=O)c2cc3c(=O)n(Cc4ccccc4)ccc3s2)cc1 [SN00797837],0.0,
Cn1ccc2c(cc(C(=O)N3CCC(N4CCCCC4)CC3)n2C)c1=O [SN00797819],18.7,
CCN1CCc2[nH]c3ccc(NC(=O)c4ccn(CC)n4)cc3c2C1 [SN00798224],1.1,
O=C(c1cc(=O)[nH]c2ccccc12)N1CCN(Cc2ccc3c(c2)OCO3)CC1 [SN00774920],0.0,
CN(C)C(=O)c1[nH]nc2c1CN(C(=O)CCc1ccccc1)CC2 [SN00800269],0.0,
Cn1c(C(=O)NCc2ccc(F)cc2)cc2c(=O)n3ccccc3nc21 [SN00787284],0.0,
CN1C(=O)CC(C(=O)NNC(=O)COc2ccccc2-c2ccccc2)C1c1cccnc1 (stereo not shown) [SN00780071],9.4,
COc1ccc(N2C(=O)c3ccncc3C2=O)c(OC)c1 [SN00807767],28.6,
Cc1nc(C2CCN(CC(=O)NC(c3ccc(F)cc3)c3cccs3)CC2)n[nH]1 (stereo not shown) [SN00772581],24.6,
CCC1c2ccsc2CCN1C(=O)c1cc(-c2csc(C)n2)c[nH]1 (stereo not shown) [SN00778239],3.8,
CN(C)C(=O)c1ccc(OC2CCN(Cc3ccccn3)C2)nc1 (stereo not shown) [SN00800120],6.6,
COc1ccc(NC(=O)c2cnc(N3CCN(CC(=O)N4CCCC4)CC3)nc2N)cc1 [SN00798764],0.0,
CN(C)c1ccc(NC(=O)C2=NN(Cc3ccc(F)cc3)C(=O)CC2)cc1 [SN00779392],8.0,
CCS(=O)(=O)c1ncc(N(Cc2ccco2)Cc2ccccc2F)c(C(=O)Nc2ccccc2)n1 [SN00786098],17.4,
CCCCN(CCCNC(=O)c1c(C)oc2nc[nH]c(=O)c12)Cc1ccccc1 [SN00784186],16.8,
CCOCCCNC(=O)N1Cc2ccccc2-n2cccc2C1c1ccccc1 (stereo not shown) [SN00791279],0.0,
Cc1ccccc1-n1nc(C(=O)N(C)Cc2ccco2)nc1CCc1ccccc1 [SN00802642],5.4,
CC1Cc2cc(S(=O)(=O)N3CCn4c3nc3ccccc34)ccc2N1C(=O)C1CCC1 (stereo not shown) [SN00788031],10.8,
COc1cc(-c2noc(-c3cc(-c4ccco4)n[nH]3)n2)cc(OC)c1OC [SN00791289],2.3,
CS(=O)(=O)c1ccc(-c2csc(-n3nccc3C(F)(F)F)n2)cc1 [SN00776135],7.7,
O=S(=O)(Nc1ccc(OC2CCNCC2)nc1)c1ccccc1 [SN00799991],0.0,
Cc1ccc(NC(=O)c2cnc3c(c2)c(=O)n(C)c(=O)n3-c2ccccc2)cc1 [SN00799453],0.0,
COc1ccccc1N1CCN(C(=O)c2cc(C3CC3)n[nH]2)CC1 [SN00787811],0.0,
Cc1sc2ccn(CC(C)C)c(=O)c2c1C(=O)NCCN1CCCCC1 [SN00799956],23.1,
COc1cc(C(=O)N2C(=O)N(c3ccc(F)cc3)C3(C)CC2c2ccccc2O3)cc(OC)c1OC (stereo not shown) [SN00784661],3.1,
COc1ccc(-c2nc(S(=O)(=O)CC(=O)Nc3ccc(F)cc3)c(-c3ccc(OC)cc3)[nH]2)cc1 [SN00785276],12.5,
COc1ccc(-n2c(CN3CCN(S(=O)(=O)c4cc(C)ccc4C)CC3)nc3cccnc32)cc1 [SN00796116],13.7,
CC(C)n1nc2c(cc1=O)CN(Cc1nc(-c3ccoc3)no1)CC2 [SN00773517],10.7,

Structure (SMILES),% Inhibition n=1 48h [%],also measured
Cn1c(=O)c2c(-c3ccccc3)c(Nc3ccccc3)oc2n(C)c1=O [SN00788641],9.4,
CCN(CC)S(=O)(=O)c1ccc2c(c1)cc(C(=O)NC1CCCC1)n2C [SN00792862],0.0,
Cc1ccc([C@@H]2C[C@H](c3ccccc3)n3nnnc3N2)cc1 (relative stereo) [SN00783518],40.1,Average % Inhibition 24h: 10.7%; % Inhibition n=1 24h: 21.3%; % Inhibition n=2 24h: 0.0%; Average % Inhibition 48h: 20.0%; % Inhibition n=2 48h: 0.0%
Cc1nc(-c2ccncc2)nc2c1CCC(=O)N2CCC1=CCCCC1 [SN00802205],0.0,
O=C1CCCN1CC1CCCCN1c1cc(Cl)c(C(F)(F)F)cc1[N+](=O)[O-] (stereo not shown) [SN00780038],9.6,
COc1ccc(CCNS(=O)(=O)c2cccc(-c3nc(-c4ccc(C)cc4)no3)c2)cc1OC [SN00797669],6.7,
CCc1onc(C)c1C1CCCN1S(=O)(=O)c1ccc(CC(C)C)cc1 (stereo not shown) [SN00793887],26.3,
CCN(CC)CCN1C(=O)C(O)=C(C(=O)c2cccs2)C1c1ccc(C)o1 (stereo not shown) [SN00776616],15.0,
COCCOCC(C)NC(=O)Cc1csc(N2CCCNC2=O)n1 (stereo not shown) [SN00781237],11.2,
Cn1ncc2c(N3CCCN(C4CC4)CC3)ncnc21 [SN00782468],9.8,
COc1ccc(-c2nc3sccn3c2Nc2ccc3c(c2)OCO3)cc1 [SN00784546],0.0,
CCC(C)NC(=O)N1CCc2c(sc3nc(-c4ccc(C)cc4)nn23)C1 (stereo not shown) [SN00790900],10.9,
Cc1csc(-c2cc(S(=O)(=O)N3c4ccccc4CC3C)c(C)n2C)n1 (stereo not shown) [SN00795179],71.5,Average % Inhibition 24h: 22.6%; % Inhibition n=1 24h: 34.1%; % Inhibition n=2 24h: 11.1%; Average % Inhibition 48h: 63.7%; % Inhibition n=2 48h: 55.8%
COc1ccc(CNC(=O)c2c(C)sc3cc(-c4ccccc4)oc23)cc1 [SN00796298],29.4,
Fc1cccc(Nc2c3c(nc4ccccc24)CCC3)c1 [SN00784170],66.2,Average % Inhibition 24h: 2.3%; % Inhibition n=1 24h: 4.6%; % Inhibition n=2 24h: 0.0%; Average % Inhibition 48h: 55.5%; % Inhibition n=2 48h: 44.9%
Cc1ccccc1NC(=O)c1c(C)oc2ncnc(N3CCCCC3)c12 [SN00788425],15.9,
Cc1cccc(Cn2c(CNS(=O)(=O)c3ccccc3)nc3cccnc32)c1 [SN00793267],9.9,
COc1ccc(-c2cc3nc4c(c(=O)n3[nH]2)CNCC4)cc1 [SN00800876],0.0,
O=C(Cn1c(=O)c2nncn2c2ncccc21)N1CCN(c2cccc(Cl)c2)CC1 [SN00799155],17.9,
CCN(Cc1ccccc1)C(=O)c1cc(-c2ccccc2)n[nH]1 [SN00788230],36.1,
COCCN1CCN(c2nc(-c3ccncc3)nc3c2CCC3)CC1 [SN00781610],15.0,
O=S1(=O)CCC(Nc2nc(-c3ccccn3)nc3scc(-c4ccccc4)c23)C1 (stereo not shown) [SN00776030],24.9,
CC(C)C(=O)N1CCc2c(c(COCc3ccccc3F)nn2C)C1 [SN00796410],0.0,
CC(=O)NC1CCCN(C(=O)c2cc3c(C)nn(Cc4ccc(F)cc4)c3s2)C1 (stereo not shown) [SN00774438],0.0,
O=S1(=O)C[C@H](NCc2ccccn2)[C@@H](S(=O)(=O)c2ccccc2)C1 [SN00786609],0.0,
COc1ccc(C(=O)N2c3ccccc3NC(=O)CC2C)cc1OC (stereo not shown) [SN00777269],0.0,
COc1ccccc1-c1noc(Cn2cnc3c(nnn3Cc3ccccc3)c2=O)n1 [SN00790613],6.5,
